According to patent US7452906B2, “Pyridine derivatives as Raf kinase inhibitors” (SmithKline Beecham P.L.C., priority 2001, dated 2008):

Assays:
human melanoma SKMEL2 = assay: Methylene Blue Growth Inhibition Assay (Assay 2), SKMEL2; type: cell-based; settings: SK-MEL-2, 72 h, B-Raf wt, [Q61R]N-Ras, 3 days
Protocol: (§1) Methylene Blue Growth Inhibition Assay (Assay 2)
(§2) Normal human foreskin fibroblasts (HFF), human melanoma (A375P, SKMEL2, SKMEL3) colon carcinoma (Colo 205) were cultured in the following growth media: A375P, Colo 205, Roswell Park Memorial Institute (RPMI) 1640 (Life Technologies 22400-089) containing 10% fetal bovine serum (FBS); HFF, Dulbecco's modified Eagle Medium (DMEM) (Life Technologies 12320-032) containing 10% FBS; SKMEL2 and SKMEL3, Minimum Essential Medium (MEM, Life Technologies 11095-080) containing 1× non-essential amino acids (Life Technologies 11140-050) and 10% FBS. Cells were harvested using 0.25% trypsin/1 mM, EDTA, counted using a haemocytometer, and plated in 100 microliters of the appropriate media, at the following densities, in a 96-well tissue culture plate Falcon 3075): HFF and A375P, 5,000 cells/well; all other cell lines, 10,000 cells/well. The next day, compounds were diluted in RPMI containing 100 micrograms/ml gentamicin, at twice the final required concentration, from 10 mM stock solutions in dimethyl sulphoxide (DMSO). One hundred microliters per well of these dilutions were added to the 100 microliters of media currently on the cell plates. RPMI containing 0.6% DMSO was added to control wells. […]. The final concentration of DMSO in all wells was 0.3%. Cells were incubated at 37° C., 5% CO2 for 3 days. Medium was removed by aspiration. Cell biomass was estimated by staining cells with 90 μl per well methylene blue (Sigma M9140, 0.5% in 50:50 ethanol:water) and incubation at room temperature for at least 30 minutes. Stain was removed, the plates rinsed by immersion in deionized water and air-dried. To release stain from the cells 100 μl of solubilization solution was added (1% N-lauroyl sarcosine, sodium salt, Sigma L5125, in phosphate-buffered saline solution (PBS)), and plates were incubated at room temperature for 30 minutes. Optical density at 620 nm was measured on a microplate reader. Percent inhibition of cell growth was calculated relative to vehicle treated control wells. […]

[1] = test system: human colon carcinoma (Colo 201) cells; assay: XTT 72 hr Growth Inhibition (Assay 3), Colo201; type: cell-based; settings: colorectal cancer, B-Raf and Ras status ND
Protocol: (§3) XTT 72 hr Growth Inhibition Protocol for Mammalian Cultured Cells (Assay 3)
(§4) Human diploid foreskin fibroblasts (HFF) or human colon carcinoma (Colo 201) cells were grown in Dulbecco's modified Eagle's medium (DMEM) (Invitrogen/Life Technologies) containing 10% fetal bovine serum (FBS) and the antibiotics penicillin (100 Units/ml) and streotomycin (100 micrograms/ml) (Invitrogen/Life Technologies). Growth was at 37° C. in humidified 5% CO2 incubators in 75 cm^2 plastic flasks. Cells were harvested using 0.25% trypsin/1 mM ethylenediaminetetraacetic acid (EDTA), resuspended in growth medium, and counted using a hemocytometer. Flat-bottomed 96-well plates were seeded with 2×10^3 cells/well in a volume of 200 ul from trypsinized exponentially growing cultures. To “blank” wells, growth medium was added with no additions. Cells were incubated overnight to permit attachment.
(§5) Next day, medium from wells that contained cells was replaced with 180 microliters of fresh medium. Appropriate dilutions of test compounds were added to the wells from stock soloutions of compound dissolved in dimethyl sulfoxide DMSO); final DMSO concentration in all wells was 0.2%. Cells plus compound were incubated for an additional 72 hr at 37° C. under normal growth conditions. Cells were then assayed for viability using standard XTT/PMS*. Fifty microliters of XTT/PMS solution was added to each well and plates were incubated for 90 minutes at 37° C. Absorbance at 450 nm was then determined using a 96-well UV plate reader (Molecular Devices). Under these conditions, absorbance of untreated control cells at 450 nm was at least 1.0 optical density unit/ml. […] It was equal to 100×(A450 test well/A450 untreated control well), the A450s being averages of triplicate determinations. […]

[2] = target: T1, human recombinant B-Raf protein (Homo sapiens, UniProt P15056); assay: Raf Kinase Assay (Assay 1): incorporation of radiolabelled phosphate into GST-kdMEK; type: biochemical; settings: head: Assay 1
T1 construct: made in house; host or cells: Sf9 insect cells (baculovirus)
T1 sequence (P15056 whole entry): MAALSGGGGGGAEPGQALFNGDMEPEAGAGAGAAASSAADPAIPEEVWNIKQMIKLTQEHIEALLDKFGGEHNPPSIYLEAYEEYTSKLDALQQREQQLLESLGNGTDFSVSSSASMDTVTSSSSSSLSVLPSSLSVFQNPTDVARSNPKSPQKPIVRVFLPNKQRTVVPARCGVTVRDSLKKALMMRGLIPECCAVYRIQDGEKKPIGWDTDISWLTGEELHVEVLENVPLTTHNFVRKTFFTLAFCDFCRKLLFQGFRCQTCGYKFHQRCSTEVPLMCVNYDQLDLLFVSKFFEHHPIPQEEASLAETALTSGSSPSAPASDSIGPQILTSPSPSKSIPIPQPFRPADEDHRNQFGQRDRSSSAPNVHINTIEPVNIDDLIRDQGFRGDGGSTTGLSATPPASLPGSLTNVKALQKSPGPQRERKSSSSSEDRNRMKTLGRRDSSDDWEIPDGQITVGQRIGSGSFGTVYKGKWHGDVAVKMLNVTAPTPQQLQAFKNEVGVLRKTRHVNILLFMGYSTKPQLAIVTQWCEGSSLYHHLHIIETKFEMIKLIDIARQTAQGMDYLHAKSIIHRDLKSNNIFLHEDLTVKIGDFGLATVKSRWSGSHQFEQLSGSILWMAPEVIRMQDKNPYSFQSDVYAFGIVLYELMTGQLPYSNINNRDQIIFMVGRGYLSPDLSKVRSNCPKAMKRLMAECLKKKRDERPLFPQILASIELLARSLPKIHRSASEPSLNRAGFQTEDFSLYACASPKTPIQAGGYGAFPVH
Protocol: Activity of human recombinant B-Raf protein was assessed in vitro by assay of the incorporation of radiolabelled phosphate to recombinant MAP kinase kinase (MEK), a known physiologic substrate of B-Raf. Catalytically active human recombinant B-Raf protein was obtained by purification from Sf9 insect cells infected with a human B-Raf recombinant baculovirus expression vector.
Method: Standard assay conditions of B-Raf catalytic activity utilised 3 ug of GST-kdMEK, 10 uM ATP and 2uCi ^33P-ATP, 50 mM MOPS, 0.1 mM EDTA, 0.1M sucrose, 10 mM MgCl2 plus 0.1% dimethylsulphoxide (containing compound where appropriate) in a total reaction volume of 30 ul. Reactions were incubated at 25° C. for 90 minutes and reactions terminated by addition of ethylenediaminetetraacetic acid (EDTA) to a final concentration of 50 uM. 10 ul of reaction was spotted to P81 phosphocellulose paper and air dried. Following four washes in ice cold 10% trichloroacetic acid, 0.5% phosphoric acid, papers were air dried prior to addition of liquid scintillant and measurement of radioactvity in a scintillation counter.

[3] = test system: colon carcinoma (Colo 205); assay: Methylene Blue Growth Inhibition Assay (Assay 2), Colo205; type: cell-based; settings: Homo sapiens, COLO 205, 72 h, colorectal cancer, B-Raf V599E, Ras wt, 3 days
Protocol: as §1, §2

[4] = test system: Human diploid foreskin fibroblasts (HFF); assay: XTT 72 hr Growth Inhibition (Assay 3), HFF; type: cell-based; settings: Fibroblast, normal, B-Raf wt, Ras wt
Protocol: as §3, §4, §5

human melanoma A375P = assay: Methylene Blue Growth Inhibition Assay (Assay 2), A375P; type: cell-based; settings: 72 h, B-Raf V599E, Ras wt, 3 days
Protocol: as §1, §2

human melanoma SKMEL3 = assay: Methylene Blue Growth Inhibition Assay (Assay 2), SKMEL3; type: cell-based; settings: SK-MEL3, 72 h, B-Raf V599E, Ras wt, 3 days
Protocol: as §1, §2

| SMILES | IC50 (human melanoma SKMEL2) [nM] | IC50 [1] [nM] | Kd [2] [nM] | IC50 [3] [nM] | IC50 [4] [nM] | IC50 (human melanoma A375P) [nM] | IC50 (human melanoma SKMEL3) [nM] |
| --- | --- | --- | --- | --- | --- | --- | --- |
| O=S1(=O)CCN(Cc2cc(-c3ccc4c(c3)CCC4=NO)c(-c3ccncc3)o2)CC1 [Example 5, 5-[5-(1,1-Dioxo-1-thiomorpholin-4-ylmethyl)-2-pyridin-4-yl-furan-3-yl]-indan-1-one oxime] | 2500 | 890 | 3.6 | 230 | > 30000 | 600 | 5400 |
| ON=C1CCc2cc(-c3cc(CN4CCOCC4)oc3-c3ccncc3)ccc21 [Example 1, 5-(5-Morpholin-4-ylmethyl-2-pyridin-4-yl-furan-3-yl)-indan-1-one oxime] | 4200 | 490 |  | 750 | > 30000 | 1300 | 5300 |
| ON=C1CCc2cc(-c3cc(C4CCNCC4)oc3-c3ccncc3)ccc21 [Example 31, 5-(5-Piperidin-4-yl-2-pyridin-4-yl-furan-3-yl)-indan-1-one oxime] | 170 | 10 |  | 10 | 21000 | 43 | 650 |
